Results reported in ChEMBL document CHEMBL3301555, “MMV Malaria Box screening in pLDH viability assay against Plasmodium falciparum gametocytes”.

The molecules below were run on Plasmodium falciparum (assay: MMV: Measure of pLDH activity as indication of parasite viability. Gametocytogenesis of 3D7 Plasmodium falciparum strain was induced in vitro and asexual parasites were depleted with N-acetylglucosamine. Gametocytes were treated with dihydroartemisinin, epoxomicin, methylene blue, primaquine, puromycin or chloroquine in 96-well plates and the pLDH activity was evaluated using a modified Makler protocol. Mosquito infectivity was measured by the standard membrane feeding assay.).
Assay type: functional
Set-up: concentration or dose not given beside the values

Row | SMILES | Growth Inhibition
1 | CCOc1cc(CNC(C)C(O)c2ccccc2)cc(Cl)c1OCC (configuration not stated) | 17.857%
2 | Cc1cc(NC(=O)c2cccc(C(F)(F)F)c2)n(-c2nc(-c3ccc4c(c3)OCO4)cs2)n1 | 1.3202%
3 | COc1cccc(C2(C)Nc3ccccc3-c3nc4ccccc4n32)c1 (configuration not stated) | 2.1776%
4 | CC(C)CNC(=O)c1c(N)n(CCc2ccccc2F)c2nc3ccccc3nc12 | -1.2922%
5 | O=C(Nc1ccccc1O)c1ccc(Oc2cccc(C(=O)Nc3ccccc3O)c2)cc1 | 23.386%
6 | Cc1ccc(-c2cc3c(nn2)-c2ccccc2C3=O)cc1 | 32.1362%
7 | Oc1ccccc1CN1CCC2(CCCN(Cc3ccccc3F)C2)C1 (configuration not stated) | 46.3042%
8 | COc1cccc(O)c1CN1CCC2(CCCN(Cc3ccc(F)cc3)C2)C1 (configuration not stated) | 38.0312%
9 | COc1cccc(Nc2nc(NCCO)c3ccccc3n2)c1.Cl | 21.665%
10 | Cc1ccc(-c2cc(C(=O)Nc3ccc(S(=O)(=O)N4CCCCC4)cc3)[nH]n2)c(O)c1 | 28.7504%
11 | O=C(NCc1ccco1)C1CCN(S(=O)(=O)c2ccc(Cl)cc2)CC1 | 3.8942%
12 | COc1ccc(C(=O)Nc2ccc3nc(N4CCCCC4)cc(C)c3c2)cc1OC | 11.0486%
13 | COCCNCC(O)Cn1c2ccc(Cl)cc2c2cc(Cl)ccc21 (configuration not stated) | 45.598%
14 | COc1ccc(N2CCN(C(CNC(=O)C3CCCCC3)c3ccc4c(c3)OCO4)CC2)cc1 (configuration not stated) | 22.7332%
15 | FC(F)(F)c1ccc(Nc2nnnc3ccccc23)cc1 | 21.2738%
16 | O=C(NC1CCN(Cc2ccccc2)CC1)c1cc(-c2ccncc2)nc2ccc(Cl)cc12 | 12.9682%
17 | c1ccc(-c2ccc(-c3nc4ccccc4[nH]3)cc2)cc1 | 7.2118%
18 | CCC(C)NCC(O)(c1ccc(Cl)cc1)c1ccc(Cl)cc1 (configuration not stated) | 29.3926%
19 | COc1cc2cc(C(=O)Nc3ccccc3)c(N)nc2cc1OC | 2.432%
20 | COc1cccc(NC(=O)Cn2c(C)c(C#N)c3ccccc32)c1 | 15.89%
21 | Cn1c(=O)c2cc(C(=O)NCCCN3CCCCCC3)sc2c2ccccc21 | 15.852%
22 | Cc1[nH]c(-c2ccc(F)cc2)cc1C(=O)NC1CCN(Cc2ccccc2)CC1 | 9.4322%
23 | COc1ccc(CCN2CCC(CN(C)Cc3cnn(-c4ccccc4)c3)CC2)cc1 | 34.868%
24 | COCCNC(=O)c1ccc(OC2CCN(Cc3ccc(F)c(F)c3)CC2)c(Cl)c1 | 5.6964%
25 | O=C(O)C(=O)O.Oc1ccccc1CN1CCN(C(c2ccccc2)c2ccccc2)CC1 | 27.3522%
26 | O=C(NC1CCCC1)c1ccc(N2CCC(NCc3cccc(C(F)(F)F)c3)CC2)cc1 | 6.6358%

Row | SMILES | Growth Inhibition
27 | CCOc1cc(Br)c(C(C)NC(=O)c2cccc(OC)c2)cc1OCC (configuration not stated) | 15.2596%
28 | CC(C)=CCN1CCC(C(=O)Nc2ccc(-c3nc4ccccc4[nH]3)cc2)CC1 | 16.6684%
29 | CCOc1cc(Cl)c(C(C)NC(=O)c2cccc(OC)c2)cc1OCC (configuration not stated) | 18.9364%
30 | O=C(CCc1ccco1)NC1CCN(CC2(c3ccc(Cl)cc3)CCC2)CC1 | 18.8072%
31 | FC(F)(F)c1cccc(Nc2nc(-c3ccccc3)nc3ncccc23)c1 | 9.5538%
32 | CCN1CCN(c2cc(C)c3cc(NC(=O)c4ccc(OC)c(OC)c4)ccc3n2)CC1 | 12.8102%
33 | CC(=O)Nc1nnc(SCc2c(C)cc(C(C)(C)C)cc2C)s1 | -6.288%
34 | Cc1ccc(Cl)cc1N1CCN(CCCNC(=O)C2CCN(c3nc4ccccc4[nH]3)CC2)CC1 | 21.502%
35 | COc1ccc(CNC2CCN(c3ccc(NC(=O)c4cccc(Cl)c4)cc3)CC2)cc1OC | 12.3618%
36 | COCCN(C(=O)Cc1cccs1)C(C(=O)NCc1ccc(OC)cc1)c1ccc(C(C)C)cc1 (configuration not stated) | 12.1412%
37 | Cc1ccc(CSCc2ccc(C(=O)NC3CC3)o2)cc1 | 9.7118%
38 | CC(NCc1ccccc1)c1cc(Cl)ccc1O (configuration not stated) | 40.6308%
39 | CN1CCN(c2c3c(c(C#N)c4nc5ccccc5n24)CCC3)CC1 | 7.7684%
40 | CCOc1ccc(C2N(C)c3ccccc3N2C)cc1 | 9.8332%
41 | FC(F)(F)c1cccc(CNC2CCN(CCc3ccccc3)CC2)c1 | 12.4718%
42 | Oc1ccc(Cl)cc1CNc1nc2ccccc2[nH]1 | 5.249%
43 | CCOc1cc(Cl)c(C(C)NC(=O)c2ccccc2)cc1OCC (configuration not stated) | 3.3956%
44 | O=C(c1ccccc1F)N(Cc1ccc(Cl)cc1)c1ccccn1 | 9.2554%
45 | COc1ccc(C(=O)Nc2ccc(Cl)cc2C(=O)Nc2ccncc2)cc1 | 8.2224%
46 | O=C(Nc1ccc(CN2CCOCC2)cc1)c1ccc(-c2ccc(Br)cc2)o1 | 17.4274%
47 | CC(=O)NCCc1nc2ccccc2n1Cc1ccc(C(C)C)cc1 | 10.8344%
48 | COc1nc(Nc2ccc(C(C)C)cc2)nc(OC)n1 | 1.041%
49 | CCN(CC)CCNc1ncnc2c1[nH]c1ccc(Br)cc12 | 8.817%
50 | CCOc1cccc(C(=O)Nc2ccc(-c3nc4ccccc4[nH]3)cc2)c1 | 7.5178%
51 | O=C(Nc1ccc(Cl)cc1)N1CCN(c2ccc3nncn3n2)CC1 | -0.5422%
52 | CN(C)c1ccc(-c2nc3cc(N)ccc3[nH]2)cc1 | 18.3914%

Row | SMILES | Growth Inhibition
53 | O=C(CSc1ccc2nnc(-c3cccc(F)c3)n2n1)Nc1ccc2c(c1)OCO2 | 8.1908%
54 | Cc1c(C)n(Cc2ccc(F)cc2)c2ccc(C(=O)NCc3ccco3)cc12 | 19.2814%
55 | CCN(CC)c1ccc(NC(=O)c2cccs2)cc1 | 3.9542%
56 | CCCCNCC(O)(c1ccc(Cl)cc1)c1ccc(Cl)cc1 | 33.502%
57 | CCCC(c1nnnn1C1CCCCC1)N1CCN(C(=O)c2ccco2)CC1.Cl (configuration not stated) | 10.3688%
58 | CC(C)(C)C(=O)Nc1ccc(C(=O)Nc2cccc(-c3nc4ccccc4[nH]3)c2)cc1 | 13.3516%
59 | COc1ccc(-c2nonc2NC(=O)c2cccc(C)c2)cc1OC | 3.7758%
60 | COc1cccc(-c2nn(C)c3sc(C(=O)NCCN4CCN(c5ccccc5F)CC4)cc23)c1 | 20.4084%
61 | O=C(Nc1ccc(N2CCN(Cc3ccccc3)CC2)cc1)c1cccs1.O=C(O)C(F)(F)F | -8.6144%
62 | Cc1ccc(CN2CCC(C(=O)Nc3ccc(-c4cc5ccccc5[nH]4)cc3)CC2)o1 | 25.7326%
63 | O=C(Nc1ccc(N2CCCCC2)c(Cl)c1)c1ccc(Br)o1 | -4.8588%
64 | CCn1c(SCC(=O)Nc2cc(C(F)(F)F)ccc2Cl)nc2ccccc2c1=O | -1.2952%
65 | Cc1ccc(Cn2c(N3CCC(C(=O)NCc4cccs4)CC3)nc3ccccc32)cc1 | -1.5746%
66 | O=C(Nc1ccsc1C(=O)NC1CCCCC1)c1ccc(F)cc1 | 7.047%
67 | O=C(Nc1ccc(Cl)cc1C(=O)Nc1ccncc1)c1ccc(Cl)cc1Cl | 4.844%
68 | O=C(Nc1cccc(C(F)(F)F)c1)c1cc(Cl)ccc1O | 14.365%
69 | CC(C)(C)c1ccc(C(=O)Nc2nc3ccccc3s2)cc1 | 9.3876%
70 | CCOc1cccc2sc(N(Cc3cccnc3)C(=O)C3CCCCC3)nc12 | 1.8442%
71 | CC1CC(C)CN(C(=O)c2ccc(Cl)cc2Cl)C1 (configuration not stated) | -2.8594%
72 | COc1ccccc1CNC(=O)C1c2ccccc2C(=O)N(CC(C)C)C1c1cccs1 (configuration not stated) | 12.474%
73 | OC(CNC1CCCC1)Cn1c2ccccc2c2ccccc21 (configuration not stated) | 39.5038%
74 | CCOc1ccc(-c2nonc2NC(=O)c2cccc(C)c2)cc1OCC | 30.014%
75 | COc1ccc(C2N(C)c3ccccc3N2C)cc1 | 3.9982%
76 | CCN(CC)c1cc(C)c2cc(NC(=O)c3cccc(OC)c3)ccc2n1 | 11.335%
77 | CC(C)(C)CC(C)(C)NCC(O)COc1ccc2c(c1)CCC2.Cl (configuration not stated) | 14.2274%
78 | CCOc1ccc(/C=C/c2nc(=O)c3ccccc3o2)cc1 | 7.7706%

Row | SMILES | Growth Inhibition
79 | O=C(Nc1ccccc1O)c1ccc(-c2ccc(Cl)cc2Cl)o1 | 15.81%
80 | O=C(Nc1nc(-c2ccccn2)cs1)c1ccccc1Br | 29.0858%
81 | O=C(Nc1ccc(F)c(Cl)c1)Nc1ccc(Cl)c(Cl)c1 | 4.6714%
82 | CC(O)(c1ccc(Cl)cc1)C(CN1CCCCC1)c1ccccc1.Cl (configuration not stated) | 18.9754%
83 | CCCCc1ccc(NS(=O)(=O)c2cc3c4c(c2)CCN4C(=O)CC3)cc1 | -1.4264%
84 | CCOc1ccc(-c2nc(NC(=O)c3cccc(S(C)(=O)=O)c3)sc2C)cc1 | 10.5858%
85 | CCOc1ccccc1CNC(=O)C1c2ccccc2C(=O)N(CC(C)C)C1c1cccs1 (configuration not stated) | 7.24%
86 | Clc1ccc2[nH]c3c(NCCCN4CCOCC4)ncnc3c2c1 | 9.617%
87 | COc1ccccc1N1CCN(C(CNS(=O)(=O)c2ccc(Cl)cc2)c2cccnc2)CC1 (configuration not stated) | 14.3398%
88 | Oc1c2c(nc3cc(-c4ccccc4)nn13)CCCC2 | 5.0802%
89 | CCCc1c(C)nc2ccccc2c1O | 34.5652%
90 | CCOc1c(Cl)cc(CNC(C)C(O)c2ccccc2)cc1OC (configuration not stated) | 22.4902%
91 | COc1ccc(C2Sc3ccccc3N=C3C2=C(O)c2ccccc23)cc1 (configuration not stated) | -5.7444%
92 | CCCN(CCC)CCCNC(=O)c1cc2c(-c3ccc(OC)c(OC)c3)nn(C)c2s1 | 9.751%
93 | Cc1cc(N2CCN(C3CCCC3)CC2)n2c(nc3ccccc32)c1C#N | 0.943%
94 | CCN(CC)CCCNc1nc(-c2ccc(Cl)cc2)nc2ccccc12 | 7.9964%
95 | CN1c2ccccc2N(C)C1c1ccc2c(c1)OCO2 | 17.3464%
96 | CCCCOc1ccc(C(=O)Nc2cc(C)on2)cc1 | -2.1422%
97 | O=C(NCC1Cc2cccc(-c3ccncc3)c2O1)c1csc2c1CCCC2 (configuration not stated) | 15.175%
98 | CC1CCCCN1CCCNC(=O)c1ccc2c(c1)sc1nc(-c3ccc(F)cc3)cn12 (configuration not stated) | 16.9994%
99 | CCc1ccc(Nc2cc(C)nc3nc(C)nn23)cc1 | -2.3802%
100 | Br.CCN(CC)S(=O)(=O)c1ccc(-c2csc(Nc3ccc(C)c(C)c3)n2)cc1 | 9.3564%
101 | C=C(C)CCC(C)N1CCC(N2CCC(C(=O)NCCc3ccccc3)CC2)CC1 (configuration not stated) | 9.4772%
102 | C=CCc1c(C)nc2ccccc2c1O | 8.3394%
